Values after ≈ are worked out from the molar mass of the structure shown.
Experiments:
[1] = Cytotoxicity against human UISO cells; assay type: functional; details: read-out: ED50 (the source's name)
[2] = Cytotoxicity against human COLON cells; assay type: functional; details: read-out: ED50 (the source's name)

Q: For `C=C1C(=O)O[C@@H]2/C=C(\C)CC/C=C(/C=O)C[C@@H](O)[C@@H]12`, which EC50 [1] is on record?
A: 1.82 µg/mL (≈ 6.94 µM)

Q: And the EC50 [2]?
A: 0.9 µg/mL (≈ 3.43 µM)

From ChEMBL document CHEMBL1150940, “New melampolides from Schkuhria schkuhrioides” (1998)
